Test system: complement alternative pathway (CAP), hemolysis of rabbit erythrocytes (RE)
Test: Combination therapy: hemolysis assay of two compounds
Type: cell-based, human
Conditions: combination with Complement Factor D inhibitor ("1"); 95% confidence limits; means ± standard deviations from two or three independent experiments
Description: The combinatorial efficacy of two compounds on the complement alternative pathway (CAP) was assessed by determining the effect of two compounds mixed together at various concentrations with Normal Human Serum (NHS) on the hemolysis of rabbit erythrocytes (RE) or the production of terminal complement complex (TCC). In both assays the two test compounds were prepared individually in seven-point dilution series, with an eighth sample for each containing solvent alone, and each of the 64 possible combinations was tested in duplicate or triplicate wells.
In the hemolysis assay, NHS (Complement Technology) diluted to 10% in GVB^0 Buffer (0.1% gelatin, 5 mM Veronal, 145 mM NaCl, 0.025% NaN3, pH 7.3, Complement Technology) plus 10 mM Mg-EGTA was incubated with the compounds at various concentrations for 15 minutes at 37° C. RE (Complement Technology) freshly suspended in GVB^0 plus 10 mM Mg-EGTA was added to a final concentration of 1×10^8 cells/mL and reactions were incubated for 30 minutes at 37° C. Positive control reactions consist of GVB^0 plus Mg-EGTA with NHS and RE but without test compounds; negative control reactions consist of GVB^0 plus Mg-EGTA with RE only. Samples were centrifuged at 2000 g for 3 minutes and supernatants collected. Absorbance at 405 nm (A405) was recorded using a microplate spectrophotometer.
Combinatorial effects in both assays were analyzed using the three-dimensional surface-graphing method of Prichard, M. N. and C. Shipman, Jr., Antiviral Research 1990, 14: 181-205, wherein the X-axis and Y-axis indicate test compound concentrations and the Z-axis indicates the difference between measured inhibition and a theoretically determined additive inhibition. For an additive combinatorial relationship the surface graph will resemble a horizontal plane of zero height, whereas positive surface peaks indicate greater inhibition than expected and therefore synergy, and negative surface peaks indicate less inhibition than expected and therefore antagonism.
Synergy and antagonism volumes are the summed volumes of peaks respectively above and below the Z=0 plane on the surface graph. Volumes are determined using 95% confidence limits to assure significance. Compounds are considered additive for volumes between −25 and 25. Compounds are considered slightly synergistic for volumes between 25 and 50, moderately synergistic for volumes between 50 and 100, and strongly synergistic for volumes greater than 100. Compounds are considered slightly antagonistic for volumes between −25 and −50, moderately antagonistic for volumes between −50 and −100, and strongly antagonistic for volumes less than −100. Results are presented as means±standard deviations from two or three independent experiments.

Row | Structure (SMILES) | Antagonism Volume [μM^2 · % inhibition] | Synergy Volume [μM^2 · % inhibition]
1 | CCN[C@H](CC(=O)N1CCN(c2nc(N)c3cc(OC)c(OC)c(F)c3n2)CC1)c1ccc(F)cc1 [Complement Factor B inhibitor] | −18 ± 10 | 157 ± 99
2 | CC[C@H](C)[C@H](N)C(=O)N[C@H]1CSSC[C@@H](C(=O)N[C@H](C(N)=O)[C@@H](C)O)NC(=O)[C@H](CCCN=C(N)N)NC(=O)[C@H](Cc2cnc[nH]2)NC(=O)[C@H](Cc2cnc[nH]2)NC(=O)CNC(=O)[C@H](Cc2c[nH]c3ccccc23)NC(=O)[C@H](CC(=O)O)NC(=O)[C@H](CCC(N)=O)NC(=O)[C@H](C(C)C)NC(=O)[C@H](C(C)C)NC1=O [Compstatin] | −17 ± 15 | 244 ± 104
3 | N=C(N)c1ccc2cc(OC(=O)c3ccc(N=C(N)N)cc3)ccc2c1 [FUT-175] | −59 ± 11 | 95 ± 37

Source: US10287301B2 (Achillion Pharmaceuticals, Inc., priority 2015, dated 2019)
